Measurements reported in US20250034264A1, “REGULATING T CELL IMMUNE RESPONSE THROUGH IGF-I RECEPTOR (IGF-1R)” (The Regents of the University of Michigan, priority 2021, published 2025).

What was measured:
[1] = test system: fibrocytes; experiment: Gene promoter activity assay (Secrete-Pair Dual Luminescence); assay type: cell-based, human; settings: 50 μg/mL
Method: Cell transfections, gene promoter assays and siRNA knockdown studies The nucleofection method was utilized to transfect fibrocytes with the U-023 program of the Nucleofector II instrument (Lonza, Walkersville, MD) and the Amaxa human CD34 cell nucleofection kit (cat. no. VPA-1003; Lonza). To assess human gene promoter activities, appropriate fragments described in earlier reports were selected and cloned for MHC II, CD80, CD86, and PD-L1. Confluent fibrocyte monolayers were treated with human Isotype IgG or teprotumumab (50 μg/mL) for 3 d. Cells were transfected with the following target gene promoter fragment sequences supplied by GeneCopoeia (Rockville, MD): MHC-2 (cat. #HPRM49526), −100 to +1429 nt; CD80 (cat. #HPRM45966), −300 to +1350 nt; CD86 (cat. #HPRM46979), −231 to +1272 nt; PD-L1 (cat. #HPRM40139), −237 to +1282 nt; and negative control clone PG04 (cat. #NEG-PG04). After 3-4 d, cells were incubated without or with bTSH (5 mU/mL) for 2 h. Monolayers were harvested and promoter activities measured using the Secrete-Pair Dual Luminescence Assay Kit (cat. #LF033, GeneCopoeia Rockville, MD) according to manufacturer's instructions in an FB12 tube luminometer (Zylux, Huntsville, AL). Values were normalized to internal controls and each experiment was performed at least three times. […]

[2] = test system: circulating CD34+CXCR4+ fibrocytes; experiment: Phase 2 TAO trial: MHC II and B7 proteins in circulating fibrocytes (flow cytometry); assay type: in vivo, human; settings: TAO patients, 20 mg/Kg, 24-week treatment
Method: Studies of circulating CD34^+ fibrocytes and T cells PBMCs from patients with active, moderate to severe TAO enrolled in a phase 2 trial for teprotumumab were cryopreserved immediately after collection. Venous blood sampling occurred at baseline and at week 24, following 8 infusions at 3 weekly intervals. The post-treatment sample was obtained 3 weeks after the final infusion of active drug or placebo. Samples were thawed and incubated with 10% knockout serum replacement medium for 1h and stained. Rinsed samples were subjected to FACS analysis with a Calibur flow cytometer (BD). Viable cells were gated on the basis of forward light scatter. All samples were analyzed using quadrant settings based on negative staining with isotype control antibodies. Mean fluorescent intensity (MFI) was calculated as the ratio of mean sample to isotype control fluorescence. Data were analyzed with FCS Express software (De Novo Software, Ontario, CA).

[3] = test system: GD-OF; experiment: IL-23p19 and IL-12p35 mRNA expression, real-time PCR; assay type: cell-based, human
Method: FIGS. 10A-10F are graphs showing the divergent effect of teprotumumab on bTSH induced IL-23p19 and IL-12p35 expression on fibrocytes and GD-OF. Rinsed fibrocyte and GD-OF monolayers were incubated with or without 50 μg/ml teprotumumab (FIGS. 10A and 10B) or 1 μM linsitinib (FIGS. 10C and 10D) and human Isotype IgG for 7-9 d, and bTSH (5 mIU/mL) was added for 6 h. Harvested RNA was reverse transcribed and isolated cDNA was subjected to quantitative real-time PCR for IL-23p19 and IL-12p35 mRNA levels. Values were normalized to their respective GAPDH levels and are expressed as the mean±SD of three independent determinations. Experiments were repeated three times. FIGS. 10E and 10F are graphs showing the levels of IL-23 protein when rinsed fibrocyte and GD-OF monolayers were incubated with or without 50 μg/ml teprotumumab. **, p<0.01; ***. P<0.001.
FIGS. 15A-15C are dose-response curves of teprotumumab effects on IL-6 expression/induction by bTSH (FIG. 15A); HAS2 expression/induction by bTSH (FIG. 15B); IL-12p35 expression/induction by bTSH (FIG. 15C). Following indicated treatments, cellular RNA was harvest from rinsed GD-OF cell layers, reversed transcribed and subjected to real-time PCR. Values were normalized to their respective GAPDH levels.
Graves' disease-orbital fibroblast (GD-OF) preparation and cultivtion GD-OF were isolated from orbital adipose/connective tissues removed during surgical orbital decompression surgery, as described ((Smith, T. J., et al., (2002) The Journal of clinical endocrinology and metabolism 87, 385-392). While the fraction of CD34^+ OF comprising GD-OF strains vary somewhat, the ratios of CD34^+/CD34^− OF are usually 50:50 in the early passages utilized in these studies (passages 2-11). Pure CD34^+ OF and CD34^− OF subsets were generated by staining for 30 m at 4° C. with fluorescein isothiocyanate-conjugated […] CD34 or its isotype control followed by cytometric cell sorting using a FACSAria III (BD Biosciences) instrument. Cells were sorted under sterile conditions into either CD34^+ OF, and CD34 OF subsets which were then re-cultured and treated without or with bTSH (5 mU/mL) or the other test compounds, as indicated, for 6 hrs, as indicated.
Real-time PCR Confluent fibrocyte and GD-OF cultures were incubated with bTSH (5 mIU/mL), teprotumumab (50 μg/mL) or linsitinib (1 μM) for the time intervals indicated, washed with PBS and RNA was extracted with the Aurum Total RNA Mini Kit (cat. #732-6820, Bio-Rad, Hercules, CA). Cellular RNA (2 μg) was reverse transcribed using QuantiTect Reverse Transcription kit (cat. #205314, Qiagen (Germantown, MD) and real-time PCR was performed using an Applied Biosystems instrument with QuantiTect SYBR Green PCR kit (cat. no. 204143; Qiagen, Frederick, MD). Primer sequences were as follows.

[4] = teprotumumab 50 μg/ml or linsitinib 1 μM, 7-9 d

## teprotumumab
[1]; 3 days
  activities of MHC II, CD80, CD86, PD-L1 gene promoter fragments: downregulated
[1]; bTSH 2 h
  bTSH induction of each gene promoter fragment: attenuated
[2]
  reduction of CD80 expression level compared to baseline: 54%
  reduction of CD86 expression level compared to baseline: 47%
  reduction of MHC-II expression level compared to baseline: 40%
  reduction of PD-L1 expression level compared to baseline: 47%
[3]; dose-response curves, GD-OF
  dose dependence of effects (FIG. 15: IL-6, HAS2, IL-12p35 expression/induction by bTSH): dose-dependent
[3]; [4]
  IL-12p35 expression, basal and induction by bTSH: enhances
  IL-23p19 expression, basal and induction by bTSH: inhibited
